Measured values published in US9186340B2, “Ischemia/reperfusion protection compositions and methods of using” (priority 2007, dated 2015).

Tests used:
[1] = test system: rats subjected to 60% blood loss; test: Rat hemorrhagic shock, 60% blood loss (Example 3); assay type: in vivo
Experimental: Rats infused with ketone bodies were subjected to 60% blood loss for at least 1 hour, followed by return of the shed blood. Endpoint measures of neuroprotection were quantitative analysis of neuronal survival and apoptosis in cortex, hippocampus and cerebellum as well as neurologic function exam scores. The objective was to determine the effectiveness of the D-form of beta-hydroxybutyrate (D-BHB) in conjunction with melatonin in protecting the brain from ischemia and providing protection from reperfusion injury after blood return.
The goal of the following experiments was to maintain 60% blood loss for at least three hours using a minimal amount of fluid in order to maintain viability. Sixty-percent blood loss was calculated by using the equation: Total blood volume=Animal body weight×0.06. A bolus volume of 1 ml ischemia/reperfusion protection composition per kilogram of animal body weight was given to animals after approximately 40% blood loss. Some animals only received a single 1 ml/kg bolus, while other animals received a slow infusion (100 μl/hr) to imitate an intravenous drip of solution after the bolus was given. […]
Once rats were fully anesthesized and stabilized for a 20 min period, blood loss was begun. […] Temperature was monitored with a rectal probe. […] Animal death was recorded when blood pressure, respiration, and precordial movement ceased (see FIG. 9 for a timeline). […]

[2] = test system: heart of hibernating ground squirrels; conditions: in vivo, ip
Experimental: The overall strategy of these experiments was to measure incorporation of isotope from infused ^13C-BHB into the brain pool of ^13C-BHB and into the tricarboxylic acid (TCA) cycle-derived metabolites such as glutamate, glutamine and aspartate. The same experiments were performed in parallel using [1-^13C2]-glucose (FIG. 1). A quantitative determination of BHB blood-brain transport and a rate of consumption (relative to glucose consumption) was determined in non-hibernating ground squirrels at euthermic temperatures and in hibernating ground squirrels at 4-6° C. Ground squirrels were anesthetized (isoflurane) prior to placement in the magnet of the magnetic resonance (MR) instrument and were injected with ^13C-BHB or [1-^13C2]-glucose.

| SMILES | survival following hemorrhagic shock versus 4 M NaCl ([1]; 60% blood loss, same osmolarity NaCl comparator) | survival versus NaCl, bolus followed by infusion ([1]; bolus followed by 100 μl/hr infusion, p-value<0.016) | transport into the heart during hibernation [2] |
| --- | --- | --- | --- |
| C[C@@H](O)CC(=O)O [D-BHB, D-beta-hydroxybutyrate] | survived longer | lived significantly longer |  |
| [13CH3][C@@H](O)[13CH2]C(=O)O [^13C-D-BHB, [2,4-^13C] D-beta-hydroxybutyrate] |  |  | efficiently transported into the heart |
